In ChEMBL document CHEMBL3039007, “Structure-based identification of OATP1B1/3 inhibitors” (Mol Pharmacol, 2013):

Assays:
[1] = target: T1, Solute carrier organic anion transporter family member 1B1 (Homo sapiens, UniProt Q9Y6L6); conditions: chinese hamster, cho, 10 µM
T1 sequence (Q9Y6L6 whole entry): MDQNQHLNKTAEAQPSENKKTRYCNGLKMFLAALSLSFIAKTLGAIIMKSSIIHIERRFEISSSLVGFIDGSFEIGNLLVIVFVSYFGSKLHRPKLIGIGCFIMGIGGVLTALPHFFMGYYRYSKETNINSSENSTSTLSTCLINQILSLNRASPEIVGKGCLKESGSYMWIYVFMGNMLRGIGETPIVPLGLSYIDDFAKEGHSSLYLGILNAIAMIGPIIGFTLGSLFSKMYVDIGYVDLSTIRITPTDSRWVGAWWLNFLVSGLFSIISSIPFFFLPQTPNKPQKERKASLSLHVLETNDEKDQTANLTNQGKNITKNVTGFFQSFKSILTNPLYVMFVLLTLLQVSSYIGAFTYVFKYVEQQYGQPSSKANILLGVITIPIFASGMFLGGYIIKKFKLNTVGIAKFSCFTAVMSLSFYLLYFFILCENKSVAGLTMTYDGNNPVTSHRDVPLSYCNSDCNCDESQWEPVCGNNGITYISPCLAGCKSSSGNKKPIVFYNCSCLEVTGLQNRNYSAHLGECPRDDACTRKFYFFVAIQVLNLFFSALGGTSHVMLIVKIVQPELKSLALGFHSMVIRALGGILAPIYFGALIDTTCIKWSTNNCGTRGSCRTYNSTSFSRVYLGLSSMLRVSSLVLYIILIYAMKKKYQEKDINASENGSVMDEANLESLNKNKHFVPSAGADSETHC

[2] = target: T2, Solute carrier organic anion transporter family member 1B3 (Homo sapiens, UniProt Q9NPD5); conditions: chinese hamster, cho, 10 µM
T2 sequence (Q9NPD5 whole entry): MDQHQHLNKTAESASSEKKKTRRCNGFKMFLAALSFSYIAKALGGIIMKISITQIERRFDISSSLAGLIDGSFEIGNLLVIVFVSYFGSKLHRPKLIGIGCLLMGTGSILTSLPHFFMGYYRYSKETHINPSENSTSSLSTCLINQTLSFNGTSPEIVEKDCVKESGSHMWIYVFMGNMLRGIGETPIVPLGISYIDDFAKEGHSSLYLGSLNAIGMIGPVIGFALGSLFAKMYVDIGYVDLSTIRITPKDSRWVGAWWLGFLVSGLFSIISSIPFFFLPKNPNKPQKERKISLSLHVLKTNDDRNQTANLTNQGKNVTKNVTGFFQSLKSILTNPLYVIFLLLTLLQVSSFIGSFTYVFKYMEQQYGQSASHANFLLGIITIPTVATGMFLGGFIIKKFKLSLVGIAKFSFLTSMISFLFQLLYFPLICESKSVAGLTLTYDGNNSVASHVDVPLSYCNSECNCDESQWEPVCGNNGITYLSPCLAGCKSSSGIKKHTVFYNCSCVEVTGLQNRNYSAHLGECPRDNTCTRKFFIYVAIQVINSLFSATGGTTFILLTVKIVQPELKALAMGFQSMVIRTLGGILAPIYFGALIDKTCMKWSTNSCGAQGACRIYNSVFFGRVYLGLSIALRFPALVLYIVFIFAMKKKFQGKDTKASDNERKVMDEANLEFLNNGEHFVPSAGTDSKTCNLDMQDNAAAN

residual activity [1] | residual activity [2] | Compound
106.9% | 104.9% | C#C[C@]1(OC(C)=O)CC[C@H]2[C@@H]3CCC4=CC(=O)CC[C@@H]4[C@H]3CC[C@@]21C [NORETHINDRONE ACETATE]
91.27% | 109.8% | C#C[C@]1(O)CC[C@H]2[C@@H]3CCC4=CC(=O)CC[C@@H]4[C@H]3CC[C@@]21C [NORETHINDRONE]
64.52% | 124.5% | C#C[C@]1(O)CC[C@H]2[C@@H]3CCC4=C(CCC(=O)C4)[C@H]3CC[C@@]21C [NORETHYNODREL]
97.94% | 99.94% | CCn1cc(C(=O)O)c(=O)c2cc(F)c(N3CCNCC3)cc21 [NORFLOXACIN]
90.26% | 102.9% | C#CC1(O)CC[C@H]2[C@@H]3CCC4=CC(=O)CC[C@@H]4[C@H]3CC[C@@]21CC (stereo not given in full) [NORGESTREL]
114.6% | 93.17% | COc1ccc2c(c1OC)C(=O)O[C@@H]2[C@H]1c2c(cc3c(c2OC)OCO3)CCN1C.Cl [NOSCAPINE HYDROCHLORIDE]
56.21% | 47.15% | CO[C@@H]1[C@@H](OC(N)=O)[C@@H](O)[C@H](Oc2ccc3c([O-])c(NC(=O)c4ccc(O)c(CC=C(C)C)c4)c(=O)oc3c2C)OC1(C)C.[Na+] [NOVOBIOCIN SODIUM]
112.3% | 103.6% | C=C(C)[C@H]1COc2cc3oc(=O)ccc3cc2O1 [OBLIQUIN]
60.32% | 88.38% | COC1=CC(=O)C(O)=C/C1=C\C=C\c1ccccc1 [OBTUSAQUINONE]
65.85% | 89.51% | CC1COc2c(N3CCN(C)CC3)c(F)cc3c(=O)c(C(=O)O)cn1c23 (stereo not given) [OFLOXACIN]
105.6% | 121.3% | O=C(O)CN(CC(=O)O)Cc1cc2c(cc1O)Oc1cc(O)c(CN(CC(=O)O)CC(=O)O)cc1C21OC(=O)c2ccccc21 [OFTASCEINE]
102.8% | 105.8% | CO[C@H]1C[C@H](O[C@H]2[C@H](C)[C@@H](O[C@@H]3O[C@H](C)C[C@H](N(C)C)[C@H]3O)[C@@H](C)C[C@@]3(CO3)C(=O)[C@H](C)[C@@H](O)[C@@H](C)[C@@H](C)OC(=O)[C@@H]2C)O[C@@H](C)[C@@H]1O.O=P(O)(O)O [OLEANDOMYCIN PHOSPHATE]
83.88% | 73.61% | CC1(C)CC[C@]2(C(=O)O)CC[C@]3(C)C(=CC[C@@H]4[C@@]5(C)CC[C@H](O)C(C)(C)[C@@H]5CC[C@]43C)[C@@H]2C1 [OLEANOLIC_ACID]
149.8% | 96.22% | COc1ccc(CC(=O)c2ccc(O)cc2O)cc1 [ONONETIN]
85.27% | 84.62% | CCCCCCCCCCC[C@@H](C[C@@H]1OC(=O)[C@H]1CCCCCC)OC(=O)[C@H](CC(C)C)NC=O [ORLISTAT]
87.55% | 96.44% | Cc1ccccc1C(OCCN(C)C)c1ccccc1.O=C(O)CC(O)(CC(=O)O)C(=O)O (stereo not given) [ORPHENADRINE CITRATE]
116.8% | 105.8% | CCOC(=O)c1c(C)cc(O)cc1O [ORSELLINIC ACID, ETHYL ESTER]

residual activity [1] | residual activity [2] | Compound
66.07% | 86.96% | Cc1cc(O)cc(O)c1C(=O)O [ORSELLINIC ACID]
75.5% | 82.08% | Cc1ccc(C(C)C)c(O)c1C(=O)O [ORTHOTHYMOTINIC ACID]
112.9% | 88.68% | CC(C)=CCc1c2c(c3occ(-c4ccc(O)cc4)c(=O)c3c1O)C=CC(C)(C)O2 [OSAJIN]
227.1% | 121.3% | COc1ccc2ccc(=O)oc2c1CC=C(C)C [OSTHOLE]
71.5% | 85.1% | NC(=O)N1c2ccccc2CC(=O)c2ccccc21 [OXCARBAZEPINE]
95.15% | 114.2% | COC(=O)Nc1nc2ccc([S+]([O-])c3ccccc3)cc2[nH]1 (stereo not given) [OXFENDAZOLE]
102.5% | 119.5% | CCCOc1ccc2nc(NC(=O)OC)[nH]c2c1 [OXIBENDAZOLE]
225.4% | 128.4% | COc1ccc(C(=O)c2ccccc2)c(O)c1 [OXYBENZONE]
95.6% | 104.7% | Cc1cc(C(C)(C)C)c(O)c(C)c1CC1=NCCN1.Cl [OXYMETAZOLINE HYDROCHLORIDE]
42.04% | 83.15% | CCCCC1C(=O)N(c2ccccc2)N(c2ccc(O)cc2)C1=O (stereo not given) [OXYPHENBUTAZONE ANHYDROUS]
61.86% | 95.2% | CN(C)[C@@H]1C(O)=C(C(N)=O)C(=O)[C@@]2(O)C(O)=C3C(=O)c4c(O)cccc4[C@@](C)(O)[C@H]3[C@H](O)[C@@H]12 [OXYTETRACYCLINE]
109.5% | 101.8% | C[C@@]12C[C@@]3(O)O[C@@H](O1)[C@]1(COC(=O)c4ccccc4)[C@H]3C[C@@]12O[C@@H]1O[C@H](CO)[C@@H](O)[C@H](O)[C@H]1O [PAEONIFLORIN]
121.7% | 108.3% | COc1ccc(C(C)=O)c(O)c1 [PAEONOL]
110.1% | 97.62% | COc1cc2c(cc1OC)-c1cc3ccc(OC)c(OC)c3c[n+]1CC2.[Cl-] [PALMATINE CHLORIDE]
78.6% | 102.6% | COc1cc2c(cc1OC)-c1cc3ccc(OC)c(OC)c3c[n+]1CC2 [PALMITINE]
81.37% | 79.12% | COc1ccnc(C[S+]([O-])c2nc3ccc(OC(F)F)cc3[nH]2)c1OC (stereo not given) [PANTOPRAZOLE]

Compound | residual activity [1] | residual activity [2]
c1ccc2c(c1)[nH]c1cnccc12 [NORHARMANE] | 95.1% | 87.66%
CC(CCc1ccccc1)NC(C)C(O)c1ccc(O)cc1.Cl (stereo not given) [NYLIDRIN HYDROCHLORIDE] | 112.1% | 116.9%
Cl.NCC(O)c1ccc(O)cc1 (stereo not given) [OCTOPAMINE HYDROCHLORIDE] | 89.25% | 96.06%
CO[C@H]1C[C@H](O[C@H]2CC[C@@]3(C)[C@H](CC[C@@H]4[C@@H]3CC[C@]3(C)[C@@H](C5=CC(=O)OC5)[C@@H](OC(C)=O)C[C@]43O)C2)O[C@@H](C)[C@@H]1O [OLEANDRIN] | 111.5% | 91.7%
C[C@@H]1O[C@@H](O[C@H]2C[C@@H](O)[C@]3(CO)[C@H]4[C@H](O)C[C@]5(C)[C@@H](C6=CC(=O)OC6)CC[C@]5(O)[C@@H]4CC[C@]3(O)C2)[C@H](O)[C@H](O)[C@H]1O [OUABAIN] | 108.1% | 98.13%
CC[S+]([O-])CCSP(=O)(OC)OC (stereo not given) [OXDEMETONMETHYL] | 116.8% | 94.08%
Clc1ccc(CO/N=C(\Cn2ccnc2)c2ccc(Cl)cc2Cl)c(Cl)c1.O=[N+]([O-])O [OXICONAZOLE NITRATE] | 116% | 122.3%
Cl.NCCc1cc(O)c(O)cc1O [OXIDOPAMINE HYDROCHLORIDE] | 80.99% | 100.5%
CCn1cc(C(=O)O)c(=O)c2cc3c(cc21)OCO3 [OXOLINIC ACID] | 55.65% | 87.39%
O=C1CCCN1CC#CCN1CCCC1 [OXOTREMORINE] | 95.24% | 82.72%
CN1CCCN=C1COC(=O)C(O)(c1ccccc1)C1CCCCC1.Cl (stereo not given) [OXYPHENCYCLIMINE HYDROCHLORIDE] | 92.1% | 103.9%
COc1cc2c(cc1-c1cc3cc4ccoc4cc3oc1=O)OCO2 [PACHYRRIZINE] | 139.6% | 121.4%
